Test results from patent publication US20250114338A1, “TETRAHYDRO-PYRIDO[3,4-b]INDOLE ESTROGEN RECEPTOR MODULATORS AND USES THEREOF” (Genentech, Inc., priority 2014, published 2025).

Tested on: ER-alpha MCF7
Test: ER-alpha MCF7 HCS EC50; stated as measured by in vitro cell proliferation assays of Examples 902 and 903
Assay type: cell-based
Conditions: Homo sapiens, MCF7, MCF7 cells; Table 2
Summary of the method: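 MCF7 cells seeded 1000-2000 cells/well for 16 h, then treated with nine-point 1:2 DMSO dilution series in quadruplicate at 37 °C, 5% CO2 for 4 days. Viable cells quantified by CellTiter-Glo ATP luminescence; EC50 calculated. Controls: fulvestrant at final 100 nM, DMSO 0.2% v/v.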

SMILES | EC50
C[C@@H]1Cc2c([nH]c3ccccc23)[C@@H](c2c(F)cc(OCCN3CC(CF)C3)cc2F)N1C(=O)c1ccccc1 [Example 185, [(1R,3R)-1-[2,6-difluoro-4-[2-[3-(fluoromethyl)azetidin-1-yl]ethoxy]phenyl]-3-methyl-1,3,4,9-tetrahydropyrido[3,4-b]indol-2-yl]-phenyl-methanone] | 14000 pM
C[C@@H]1Cc2c([nH]c3ccccc23)[C@@H](c2c(F)cc(OCCN3CC(CF)C3)cc2F)N1CC1CC1 [Example 186, (1R,3R)-2-(cyclopropylmethyl)-1-[2,6-difluoro-4-[2-[3-(fluoromethyl)azetidin-1-yl]ethoxy]phenyl]-3-methyl-1,3,4,9-tetrahydropyrido[3,4-b]indole] | 2000 pM
C[C@@H]1Cc2c([nH]c3ccccc23)[C@@H](c2c(F)cc(OC3CN(CCC4CC4)C3)cc2F)N1CC(C)(C)F [Example 187, (1R,3R)-1-[4-[1-(2-cyclopropylethyl)azetidin-3-yl]oxy-2,6-difluoro-phenyl]-2-(2-fluoro-2-methyl-propyl)-3-methyl-1,3,4,9-tetrahydropyrido[3,4-b]indole] | 1000 pM
C=CCN1CC(Oc2cc(F)c([C@@H]3c4[nH]c5ccccc5c4C[C@@H](C)N3CC(C)(C)F)c(F)c2)C1 [Example 188, (1R,3R)-1-[4-(1-allylazetidin-3-yl)oxy-2,6-difluoro-phenyl]-2-(2-fluoro-2-methyl-propyl)-3-methyl-1,3,4,9-tetrahydropyrido[3,4-b]indole] | 128 pM
C[C@@H]1Cc2c([nH]c3ccccc23)[C@@H](c2c(F)cc(OC3CN(CC4CCC4)C3)cc2F)N1CC(C)(C)F [Example 189, (1R,3R)-1-[4-[1-(cyclobutylmethyl)azetidin-3-yl]oxy-2,6-difluoro-phenyl]-2-(2-fluoro-2-methyl-propyl)-3-methyl-1,3,4,9-tetrahydropyrido[3,4-b]indole] | 1000 pM
CC(C)CCN1CC(Oc2cc(F)c([C@@H]3c4[nH]c5ccccc5c4C[C@@H](C)N3CC(C)(C)F)c(F)c2)C1 [Example 190, (1R,3R)-1-[2,6-difluoro-4-(1-isopentylazetidin-3-yl)oxy-phenyl]-2-(2-fluoro-2-methyl-propyl)-3-methyl-1,3,4,9-tetrahydropyrido[3,4-b]indole] | 2000 pM
CCC(C)CN1CC(Oc2cc(F)c([C@@H]3c4[nH]c5ccccc5c4C[C@@H](C)N3CC(C)(C)F)c(F)c2)C1 (stereo partly drawn) [Example 191, (1R,3R)-1-(2,6-difluoro-4-((1-(2-methylbutyl)azetidin-3-yl)oxy)phenyl)-2-(2-fluoro-2-methylpropyl)-3-methyl-2,3,4,9-tetrahydro-1H-pyrido[3,4-b]indole] | 267 pM
CCCC(C)N1CC(Oc2cc(F)c([C@@H]3c4[nH]c5ccccc5c4C[C@@H](C)N3CC(C)(C)F)c(F)c2)C1 (stereo partly drawn) [Example 192, (1R,3R)-1-(2,6-difluoro-4-((1-(pentan-2-yl)azetidin-3-yl)oxy)phenyl)-2-(2-fluoro-2-methylpropyl)-3-methyl-2,3,4,9-tetrahydro-1H-pyrido[3,4-b]indole] | 1000 pM
C[C@@H]1Cc2c([nH]c3ccccc23)[C@@H](c2c(F)cc(OC3CN(C4CCC4)C3)cc2F)N1CC(C)(C)F [Example 193, (1R,3R)-1-[4-(1-cyclobutylazetidin-3-yl)oxy-2,6-difluoro-phenyl]-2-(2-fluoro-2-methyl-propyl)-3-methyl-1,3,4,9-tetrahydropyrido[3,4-b]indole] | 484 pM
C[C@@H]1Cc2c([nH]c3ccccc23)[C@@H](c2c(F)cc(OC3CN(C4COC4)C3)cc2F)N1CC(C)(C)F [Example 194, (1R,3R)-1-[2,6-difluoro-4-[1-(oxetan-3-yl)azetidin-3-yl]oxy-phenyl]-2-(2-fluoro-2-methyl-propyl)-3-methyl-1,3,4,9-tetrahydropyrido[3,4-b]indole] | 77 pM
C[C@@H]1Cc2c([nH]c3ccccc23)[C@@H](c2c(F)cc(OC3CN(C4CC4)C3)cc2F)N1CC(C)(C)F [Example 195, (1R,3R)-1-[4-(1-cyclopropylazetidin-3-yl)oxy-2,6-difluoro-phenyl]-2-(2-fluoro-2-methyl-propyl)-3-methyl-1,3,4,9-tetrahydropyrido[3,4-b]indole] | 165 pM
C[C@@H]1Cc2c([nH]c3ccccc23)[C@@H](c2c(F)cc(SC3CN(CCCF)C3)cc2F)N1CC(C)(C)F [Example 196, (1R,3R)-1-[2,6-difluoro-4-[1-(3-fluoropropyl)azetidin-3-yl]sulfanyl-phenyl]-2-(2-fluoro-2-methyl-propyl)-3-methyl-1,3,4,9-tetrahydropyrido[3,4-b]indole] | 271 pM
CC(C)CN1[C@H](c2c(F)cc(OCCN3CC(CF)C3)cc2F)c2[nH]c3ccccc3c2C[C@H]1C [Example 197, (1R,3R)-1-[2,6-difluoro-4-[2-[3-(fluoromethyl)azetidin-1-yl]ethoxy]phenyl]-2-isobutyl-3-methyl-1,3,4,9-tetrahydropyrido[3,4-b]indole] | 1000 pM
C[C@@H]1Cc2c([nH]c3ccccc23)[C@@H](c2c(F)cc(OCCN3CC(CF)C3)cc2F)N1C[C@H](C)c1ccccc1 [Example 198, (1R,3R)-1-(2,6-difluoro-4-(2-(3-(fluoromethyl)azetidin-1-yl)ethoxy)phenyl)-3-methyl-2-((R)-2-phenylpropyl)-2,3,4,9-tetrahydro-1H-pyrido[3,4-b]indole] | 2000 pM
C[C@H](CN1[C@H](c2c(F)cc(OCCN3CC(CF)C3)cc2F)c2[nH]c3ccccc3c2C[C@H]1C)c1ccccc1 [Example 199, (1R,3R)-1-(2,6-difluoro-4-(2-(3-(fluoromethyl)azetidin-1-yl)ethoxy)phenyl)-3-methyl-2-((S)-2-phenylpropyl)-2,3,4,9-tetrahydro-1H-pyrido[3,4-b]indole] | 2320 pM
CCCN1CC(Oc2cc(F)c([C@@H]3c4[nH]c5ccccc5c4C[C@@H](C)N3CC(C)C)c(F)c2)C1 [Example 200, (1R,3R)-1-[2,6-difluoro-4-(1-propylazetidin-3-yl)oxy-phenyl]-2-isobutyl-3-methyl-1,3,4,9-tetrahydropyrido[3,4-b]indole] | 408 pM
C[C@@H]1Cc2c([nH]c3ccccc23)[C@@H](c2ccc(OC3CN(CCCF)C3)cc2)N1CC(C)(C)F [Example 201, (1R,3R)-2-(2-fluoro-2-methyl-propyl)-1-[4-[1-(3-fluoropropyl)azetidin-3-yl]oxyphenyl]-3-methyl-1,3,4,9-tetrahydropyrido[3,4-b]indole] | 315 pM
C[C@@H]1Cc2c([nH]c3ccccc23)[C@@H](c2c(F)cc(OC3CN(CCCF)C3)cc2F)N1S(C)(=O)=O [Example 202, (1R,3R)-1-[2,6-difluoro-4-[1-(3-fluoropropyl)azetidin-3-yl]oxy-phenyl]-3-methyl-2-methylsulfonyl-1,3,4,9-tetrahydropyrido[3,4-b]indole] | 100 pM
C[C@@H]1Cc2c([nH]c3ccccc23)[C@@H](c2c(F)cc(OC[C@H](C)N3CC(C(F)F)C3)cc2F)N1CC(C)(C)F [Example 204, (1R,3R)-1-[4-[(2S)-2-[3-(difluoromethyl)azetidin-1-yl]propoxy]-2,6-difluoro-phenyl]-2-(2-fluoro-2-methyl-propyl)-3-methyl-1,3,4,9-tetrahydropyrido[3,4-b]indole] | 371 pM
